Patent US6881825B1, “Identication of peptides that facilitate uptake and cytoplasmic and/or nuclear transport of proteins, DNA and virues” (University of Pittsburgh of The Commonwealth System of …, priority 1999, dated 2005)

Legend:
HIG82 cells = test: Cell viability by MTT assay (OD 570 nm); type: cell-based, rabbit; details: HIG-82 cells; 100-3.1 μM peptide, three hours; FIG. 14, 15
Experimental: 2×10^5 cells (HIG82, MCA205 or Jurkatt) were seeded into 24 well plates. Forty-eight hours later, 100 μM, 50 μM, 25 μM, 6.25 μM and 3.1 μM of the either the death peptide (SEQ ID NO:24), peptide 5 alone (SEQ ID NO:5) or the apoptotic peptide alone (SEQ ID NO:23) was added to the cells. To check for cell viability, three hours later, the media was aspirated and 1 ml of scrum-free media containing 0.25 mg of MTT was added to each well and incubated for 4 hours at 37° C. MTT-containing media was then removed and 1 ml of absolute isopropanol containing 0.4N HCl was added. Photographs were taken of the plates, then the cells were harvested and any debris was centrifuged. OD as taken at λ=570 nm. Each sample point was performed in triplicate.

[1] = system: arthritic rabbit knee joints; test: IL-1-induced arthritis, intra-articular peptide, TUNEL/histology and lavage white blood cells; type: in vivo; details: arthritic rabbit knees; FIG. 18
Experimental: In addition, the death peptide was administered to rabbits with IL-1-induced arthritis (see Ghivizzani et al. J. Immunol. 159:3604 (1997)). Three arthritic rabbits received the death peptide, three received peptide 5 alone and 3 received the apoptotic protein alone. The rabbits were sacrificed 24 or 72 hours post-injection of the peptides and the rabbit knee capsules were removed for histology analysis and TUNEL staining.

MCA205 fibrosarcomas = test: TUNEL and H&E staining of treated MCA205 fibrosarcomas; type: in vivo, C57BL/6 mice; details: 11 days daily treatment, sacrificed three hours after last injection; FIG. 16C
Experimental: To determine whether the death peptide could induce apoptosis in tumor cells and inhibit tumor growth in vivo, C57BL/6 mice bearing day 7 tumors in each […] (seeded with 1×10^5 MCA205 cells) were injected daily for 10 days with a 50 μl volume of 1 mM death peptide (SEQ ID NO:24; DP1) or the apoptotic peptide alone (SEQ ID NO:23; KLA) or a saline mock into both tumors. Five mice were used in each group. Tumor volume was estimated by multiplying maximum length×width^2. Separately, C57BL/6 with single, day 12 tumors were injected with 1 mM death peptide (SEQ ID NO:24; DP1), apoptotic peptide alone (SEQ ID NO:23; KLA) or saline for eleven days. Ten mice comprised each group. On the final day, the mice were injected with the appropriate saline or peptide solution and sacrificed 3 hours post-injection. Tumors were paraffin-embedded, sectioned, and stained for TUNEL and counterstained with methyl green or stained with hematoxylin and eosin to reveal histologic architecture.
To test whether apoptosis was the mechanism of tumor killing in vivo and to study the effects of death peptide administration on tumor architecture, fibrosarcomas treated daily for 11 days with death peptide (SEQ ID NO:24; DP1), apoptotic peptide alone (SEQ ID NO:23, KLA) or tris buffered saline (TBS) were injected with 50 μl of 1 mM DP1, KLA or TBS on the eleventh day and sacrificed three hours later. […]

Q: With KLAKLAKKLAKLAK (random peptide library) as the sequence, how does the “cell viability (MTT, OD570)” value (HIG82 cells) read?
A: did not impair viability

Q: And the “apoptosis of hyperplastic synovium” value [1]?
A: did not

Q: And the “apoptosis in tumors (TUNEL staining)” value (MCA205 fibrosarcomas)?
A: No TUNEL staining
